Reference: US6509319B1, “EDTA and other chelators with or without antifungal antimicrobial agents for the prevention and treatment of fungal infections” (Board of Regents, The University of Texas System, priority 1997, dated 2003)

Assays:
Candida krusei = settings: 0.35 mg EDTA per mL, in vitro
Description: (§1) These figures are discussed elsewhere in the Detailed Description section. A spectrophotometer was used at a frequency of 660 nm to measure the absorbency of the solution.
(§2) For molds, all inocula were started at 1×10^4 conidia/mL. For yeast and bacteria, all inocula were started at 1×10^6 cfu/mL. The medium used was Mueller-Hinton.
(§3) The concentration of chelator in these studies was 0.35 mg EDTA per mL water.

Aspergillus flavus = settings: 0.35 mg EDTA per mL, in vitro
Description: as §1, §2, §3

Aspergillus terreus = settings: 0.35 mg EDTA per mL, Mueller-Hinton, in vitro
Description: as §1, §2, §3

Fusarium oxysporum = settings: 0.35 mg EDTA per mL, Mueller-Hinton, in vitro
Description: as §1, §2, §3

[1] = cited from earlier work

Row | Structure (SMILES) | inhibitory effect on growth (Candida krusei; Mueller-Hinton) | time after contact at which the inhibitory effect is noticeable (Candida krusei) | inhibitory effect on growth relative to the control population (Aspergillus flavus; Mueller-Hinton) | time after application from which the inhibitory effect is most clearly noticeable (Aspergillus flavus) | inhibitory effect on growth (Aspergillus terreus) | inhibitory effect on growth (Fusarium oxysporum) | solubility in aqueous solution [1]
1 | O=C(O)CN(CCN(CC(=O)O)CC(=O)O)CC(=O)O [EDTA, Ethylenediamine-N,N,N′,N′,-tetraacetic acid] | inhibitory effect | only a few hours | inhibitory effect | 12 h | inhibitory effect | inhibitory effect | –
2 | C[C@@H]1[C@H](O)[C@@H](C)/C=C/C=C/C=C/C=C/C=C/C=C/C=C/[C@H](O[C@@H]2O[C@H](C)[C@@H](O)[C@H](N)[C@@H]2O)C[C@@H]2O[C@](O)(C[C@@H](O)C[C@@H](O)[C@H](O)CC[C@@H](O)C[C@@H](O)CC(=O)O[C@H]1C)C[C@H](O)[C@H]2C(=O)O [Amphotericin B] | – | – | – | – | – | – | not soluble
